Results: ChEMBL document CHEMBL1201862, “PubChem BioAssay data set” (2004)
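How tested: cells in 96-well plates exposed to compound for 48 hours at five concentrations. GI50 is the concentration that inhibits growth by half.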 Calls of active or inactive are those of the source. Cut-off read from the data, not from the text of the source: active = GI50 up to about 1.1 µM and inactive = higher.

Columns and labels:
Experiment in all cases: NCI anticancer screen, dose series, 48 h
[1] = system: LOX IMVI
[2] = system: SK-OV-3
[3] = system: MDA-MB-231
[4] = system: SK-MEL-28
[5] = system: NCI/ADR-RES
[6] = system: M14
[7] = system: BT-549
[8] = system: SR
[9] = system: RXF 393
[10] = system: CAKI-1
[11] = system: HL-60
[12] = system: SN12C
[13] = system: RPMI-8226
[14] = system: SNB-75
[15] = system: U-251
[16] = system: TK-10
[17] = system: IGROV-1
[18] = system: MDA-MB-435
[19] = system: HCT-15

| Compound | GI50 [1] | GI50 [2] | GI50 [3] | GI50 [4] | GI50 [5] | GI50 [6] | GI50 [7] | GI50 [8] | GI50 [9] | GI50 [10] | GI50 [11] | GI50 [12] | GI50 [13] | GI50 [14] | GI50 [15] | GI50 [16] | GI50 [17] | GI50 [18] | GI50 [19] |
| --- | --- | --- | --- | --- | --- | --- | --- | --- | --- | --- | --- | --- | --- | --- | --- | --- | --- | --- | --- |
| Cc1cc(S(=O)(=O)Nc2nc3cccnc3[nH]2)c(S)cc1Cl | 83 µM (inactive) | > 100 µM (inactive) | 45.3 µM (inactive) | > 100 µM (inactive) | > 100 µM (inactive) | > 100 µM (inactive) | > 100 µM (inactive) | > 100 µM (inactive) | > 100 µM (inactive) | > 100 µM (inactive) | > 100 µM (inactive) | > 100 µM (inactive) | > 100 µM (inactive) | > 100 µM (inactive) | 63.2 µM (inactive) | > 100 µM (inactive) | > 100 µM (inactive) | > 100 µM (inactive) | 91 µM |
| Cc1nc(Nc2ccc(F)cc2)c2sc(=S)n(-c3ccc(F)cc3)c2n1 | 4.99 µM (inactive) | 19.4 µM (inactive) | 13.9 µM (inactive) | 14.7 µM (inactive) | 17.1 µM (inactive) | 2.94 µM (inactive) | 13.3 µM (inactive) | 3.27 µM (inactive) | 12.6 µM (inactive) | 18.3 µM (inactive) | 23.6 µM (inactive) | 14 µM (inactive) | 5.01 µM (inactive) | 16.1 µM (inactive) | 14.7 µM (inactive) | 14.5 µM (inactive) | 10.6 µM (inactive) | 10.8 µM (inactive) | 3.09 µM |
| COc1cc(C2c3cc4c(cc3OC(Nc3ccccc3)C2C)OCO4)cc(OC)c1OC (stereo not given) | 0.593 µM (active) | 1.08 µM (active) | 2.8 µM (inactive) | 1.61 µM (inactive) | 0.564 µM (active) | 0.381 µM (active) | 4.36 µM (inactive) | 0.828 µM (active) | 0.565 µM (active) | 0.555 µM (active) | 0.275 µM (active) | 0.659 µM (active) | 0.608 µM (active) | 3.08 µM (inactive) | 0.392 µM (active) | 23.6 µM (inactive) | 1.41 µM (inactive) | 0.139 µM (active) | 0.494 µM |
| COc1cccc(C2c3cc4c(cc3OC(NNC(N)=O)C2C)OCO4)c1O (stereo not given) | 0.933 µM (active) | 5.94 µM (inactive) | 3.94 µM (inactive) | 1.99 µM (inactive) | 3.36 µM (inactive) | 0.513 µM (active) | 33 µM (inactive) | 1.64 µM (inactive) | 0.766 µM (active) | 3.11 µM (inactive) | 1.05 µM (active) | 2.65 µM (inactive) | 2.32 µM (inactive) | 4.33 µM (inactive) | 1.07 µM (active) | 9.18 µM (inactive) | 2.58 µM (inactive) | 0.216 µM (active) | 1.08 µM |
| CCOP(=O)(OCC)C(Cc1cn(S(=O)(=O)c2ccc(C)cc2)cn1)C(=O)O (stereo not given) | > 100 µM (inactive) | > 100 µM (inactive) | > 100 µM (inactive) | > 100 µM (inactive) | > 100 µM (inactive) | > 100 µM (inactive) | > 100 µM (inactive) | > 100 µM (inactive) | > 100 µM (inactive) | > 100 µM (inactive) | > 100 µM (inactive) | > 100 µM (inactive) | > 100 µM (inactive) | > 100 µM (inactive) | > 100 µM (inactive) | > 100 µM (inactive) | > 100 µM (inactive) | > 100 µM (inactive) | > 100 µM |
| CC(C)OP(=O)(OC(C)C)C(C(C)C)N(C)/C(N)=N/C#N (stereo not given) | > 100 µM (inactive) | > 100 µM (inactive) | > 100 µM (inactive) | > 100 µM (inactive) | > 100 µM (inactive) | > 100 µM (inactive) | > 100 µM (inactive) | > 100 µM (inactive) | > 100 µM (inactive) | > 100 µM (inactive) | > 100 µM (inactive) | > 100 µM (inactive) | > 100 µM (inactive) | > 100 µM (inactive) | > 100 µM (inactive) | > 100 µM (inactive) | > 100 µM (inactive) | > 100 µM (inactive) | > 100 µM |
| COC(=O)/C=C/c1ccccc1N=[S@](C)(=O)c1ccc(C)cc1 | 23.5 µM (inactive) | 30.3 µM (inactive) | 23.8 µM (inactive) | 16.4 µM (inactive) | 7.13 µM (inactive) | 12.6 µM (inactive) | 33 µM (inactive) | 3.49 µM (inactive) | 13.2 µM (inactive) | 15 µM (inactive) | 2.32 µM (inactive) | 34.9 µM (inactive) | 18 µM (inactive) | 6.21 µM (inactive) | 17.7 µM (inactive) | 22.4 µM (inactive) | 18 µM (inactive) | 3.54 µM (inactive) | 6.14 µM |
| CCCCCCOc1ccc(C(=O)N(C)O)cc1 | 7.52 µM (inactive) | 18.8 µM (inactive) | 41.9 µM (inactive) | 40.7 µM (inactive) | 10.1 µM (inactive) | 12.6 µM (inactive) | 33.7 µM (inactive) | 6.35 µM (inactive) | 13.1 µM (inactive) | 15.6 µM (inactive) | 4.01 µM (inactive) | 11.9 µM (inactive) | 7.55 µM (inactive) | 27.3 µM (inactive) | 12.5 µM (inactive) | 46.3 µM (inactive) | 11.5 µM (inactive) | 23.4 µM (inactive) | 4.41 µM |
| CC(=O)NNc1nc(C)c(C(/C=C/c2ccc3c(c2)OCO3)=N/Nc2ccccc2)s1 | > 100 µM (inactive) | > 100 µM (inactive) | > 100 µM (inactive) | > 100 µM (inactive) | > 100 µM (inactive) | > 100 µM (inactive) | > 100 µM (inactive) | > 100 µM (inactive) | > 100 µM (inactive) | > 100 µM (inactive) | > 100 µM (inactive) | > 100 µM (inactive) | > 100 µM (inactive) | > 100 µM (inactive) | > 100 µM (inactive) | > 100 µM (inactive) | > 100 µM (inactive) | > 100 µM (inactive) | > 100 µM |
| CN(CC(N)=O)C(=O)N(CCCl)N=O [SARCNU] | > 100 µM (inactive) | > 83.9 µM (inactive) | > 100 µM (inactive) | > 100 µM (inactive) | > 100 µM (inactive) | > 100 µM (inactive) | > 100 µM (inactive) | > 71.1 µM (inactive) | > 100 µM (inactive) | > 100 µM (inactive) | > 100 µM (inactive) | > 100 µM (inactive) | > 100 µM (inactive) | 38.6 µM (inactive) | > 100 µM (inactive) | > 100 µM (inactive) | > 100 µM (inactive) | > 100 µM (inactive) | > 100 µM |
| CC(=O)Nc1ccc(NS(=O)(=O)c2ccc3nc(C)n(NS(=O)(=O)c4ccc(NC(C)=O)cc4)c(=O)c3c2)cc1 | > 100 µM (inactive) | > 100 µM (inactive) | > 100 µM (inactive) | > 100 µM (inactive) | > 100 µM (inactive) | > 100 µM (inactive) | > 100 µM (inactive) | > 100 µM (inactive) | > 100 µM (inactive) | > 100 µM (inactive) | > 100 µM (inactive) | > 100 µM (inactive) | > 100 µM (inactive) | > 100 µM (inactive) | > 100 µM (inactive) | > 100 µM (inactive) | > 100 µM (inactive) | > 100 µM (inactive) | > 100 µM |
| COC(=O)C1=C(OC(=O)/C=C/c2ccc(Cl)cc2)C(C(=O)OC)[C@]2(O)[C@@H](C(=O)OC)[C@H]1C[C@@H](c1ccccc1)[C@@H]2C(=O)OC (stereo not given in full) | 7.19 µM (inactive) | 29.9 µM (inactive) | 12.4 µM (inactive) | 17.3 µM (inactive) | 3.52 µM (inactive) | 6.1 µM (inactive) | 6.55 µM (inactive) | 4.5 µM (inactive) | 9.29 µM (inactive) | 11.1 µM (inactive) | 3.81 µM (inactive) | 7.36 µM (inactive) | 3.92 µM (inactive) | 12.3 µM (inactive) | 4.74 µM (inactive) | > 30.3 µM (inactive) | 3.18 µM (inactive) | 3.82 µM (inactive) | 3.66 µM |
| C=C1C(=O)OC2C1C(OC(=O)/C(C)=C/C)CC(O)(CCl)C1C(OC(C)=O)C=C(C)C21O (stereo not given) | 6.49 µM (inactive) | 37 µM (inactive) | 20.1 µM (inactive) | 10.5 µM (inactive) | 16.3 µM (inactive) | 12.6 µM (inactive) | 8.85 µM (inactive) | 3.8 µM (inactive) | 11.2 µM (inactive) | 7.11 µM (inactive) | 1.89 µM (inactive) | 16.2 µM (inactive) | 7.01 µM (inactive) | 21.8 µM (inactive) | 20.2 µM (inactive) | 13.8 µM (inactive) | 14.4 µM (inactive) | 20.3 µM (inactive) | 6.46 µM |
| C=CCOc1ccc(N)c([N+](=O)[O-])c1 | > 100 µM (inactive) | > 100 µM (inactive) | > 10 µM (inactive) | > 100 µM (inactive) | > 100 µM (inactive) | > 100 µM (inactive) | > 100 µM (inactive) | > 100 µM (inactive) | > 100 µM (inactive) | > 100 µM (inactive) | > 100 µM (inactive) | > 100 µM (inactive) | > 100 µM (inactive) | 89.3 µM (inactive) | > 100 µM (inactive) | > 100 µM (inactive) | > 100 µM (inactive) | > 100 µM (inactive) | > 100 µM |
| O/N=C1\Nc2ccccc2OCc2cc(Br)c(Br)cc2COc2ccccc2N\C1=N/O | 10.1 µM (inactive) | 17.2 µM (inactive) | 14.8 µM (inactive) | 22.6 µM (inactive) | 20.2 µM (inactive) | 21.2 µM (inactive) | 15.1 µM (inactive) | 2.06 µM (inactive) | 16.6 µM (inactive) | 12.9 µM (inactive) | 5.18 µM (inactive) | 11.9 µM (inactive) | 10.8 µM (inactive) | 20.2 µM (inactive) | 13.8 µM (inactive) | 25 µM (inactive) | 2.79 µM (inactive) | 14.8 µM (inactive) | 5.86 µM |
